In brackets after ≈: the same amount, converted by molar mass. Counter-ions that a name gives are not always drawn.
Legend:
[1] = system: Western diet fed Sprague-Dawley rats; test: Rat western diet model: in vivo effects on plasma and hepatic triglyceride levels; details: compared with chow-fed vehicle animals
Excerpt: The rat western diet model was utilized to assess the effects of DGAT2 inhibitor treatment on plasma triglyceride production and hepatic triglyceride content in vivo. Male Sprague-Dawley rats were housed under standard laboratory conditions on a 12-hour light, 12-hour dark cycle (lights on at 06:00). Two weeks prior to study start animals were placed on a high-fat, high sucrose, high-cholesterol diet (D12079b, provided by Research Diets, New Brunswick, N.J.). This diet provides ˜43% of kilocalories from carbohydrate and ˜41% of kilocalories from fat. Example 4 was administered orally as a solution (10 mL/kg dosing volume) in 0.5% methylcellulose in deionized water, pH 7.0-7.5 (methylcellulose was obtained from Sigma-Aldrich, St. Louis, Mo.). […] Plasma TG levels were determined using a Roche Hitachi Chemistry analyzer according to the manufacturer's instructions (Roche Diagnostics Corporation, Indianapolis, Ind.) and data was analyzed using GraphPad Prism (GraphPad Software, Inc., La Jolla, Calif.). […] The triglyceride assay was performed through absorbance and reported as milligrams per deciliter. […]
FIG. 4 plots the multiple dose effects of Example 4 on Plasma Triglyceride in Western Diet Fed Sprague-Dawley Rats where plasma triglyceride levels were determined from blood drawn from the lateral tail vein 2-hours following the final dose of Example 4. […]

[2] = Thermodynamic solubility in various biorelevant media; type: physicochemical; details: PBS, pH 6.8; crystalline solid
Protocol: The solubility of active pharmaceutical ingredients is an important characteristic in determining biological performance and ease of formulation during drug development, with high solubility being preferred (Klein, S. 2010, The AAPS Journal, 12, 397-406; Di, L., et al 2012, Drug Disc. Today, 17. 486-495). A test sample of crystalline solid (˜7 mg) was combined in a vial with 1 mL of the relevant buffer solution and the mixture vortexed to combine. If the solid dissolved completely, additional solid was added with vortexing until a saturated solution was obtained. The saturated solution/solid mixture was capped and subjected to temperature cycling as follows: 1 min at 25° C., 8 h at 40° C., 5 h at 15° C. and 12 h at 25° C. The mixture was filtered in a centrifugal filtration device (0.22 μm PVDF filter, MilliporeSigma, Milwaukee, Wis.) at 13,000 rpm and the concentration of the test compound in the filtrate was determined by HPLC/UPLC with reference to a three point standard curve. Phosphate buffered saline (PBS, pH 6.8, 50 mM phosphate buffer, 250 mM NaCl). Simulated gastric fluid (SGN pH 1.2, USP recipe). Fasted state simulated intestinal fluid (FaSSIF, 3 mM sodium taurocholate, 0.75 mM phospholipid from soybean lecithin, 50 mM phosphate buffer, ionic strength adjusted to 250 mM with NaCl, pH 6.8) and fed state simulated intestinal fluid (FeSSIF, 15 mM sodium taurocholate, 3.75 mM phospholipid from soybean lecithin, 144 mM acetic acid, 50 mM phosphate buffer, ionic strength adjusted to 250 mM with NaCl, pH 6.8).

[3] = Determination of pKa (capillary electrophoresis, Analiza, Inc.); type: physicochemical; details: mean, read-out: Basic pKa (most basic pKa)
[4] = biological target: human DGAT2 (hDGAT2) (Homo sapiens (Human), UniProt Q96PD7); test: In vitro DGAT2 assay, determination of IC50 values for DGAT2 inhibitors; type: biochemical; details: hDGAT2 membrane fraction; geometric mean
Sequence of human DGAT2 (hDGAT2) (Q96PD7 whole entry): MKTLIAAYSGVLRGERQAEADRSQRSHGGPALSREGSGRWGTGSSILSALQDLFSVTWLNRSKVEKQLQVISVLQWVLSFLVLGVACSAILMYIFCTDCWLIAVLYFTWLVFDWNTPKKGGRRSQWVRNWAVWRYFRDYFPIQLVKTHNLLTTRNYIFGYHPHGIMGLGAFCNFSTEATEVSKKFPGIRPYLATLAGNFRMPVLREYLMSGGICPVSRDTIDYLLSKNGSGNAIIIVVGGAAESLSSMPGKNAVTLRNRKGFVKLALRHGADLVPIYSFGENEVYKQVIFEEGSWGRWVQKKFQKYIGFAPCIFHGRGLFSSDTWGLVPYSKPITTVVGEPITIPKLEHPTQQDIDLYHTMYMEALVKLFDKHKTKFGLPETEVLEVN
Protocol: Recombinant baculovirus for the FLAG-tagged hDGAT2 was generated in SF9 insect cells using Bac-to-Bac baculovirus expression system (Invitrogen) according to the manufacturer's protocol. For the expression of hDGAT2, SF9 cells (20 L) grown in Sf900II media were infected with hDGAT2 baculovirus at a multiplicity of infection of 1 in a Wave Bioreactor System 20/50P wave bag (GE Healthcare). After 40 hours of infection, the cells were then harvested by centrifugation at 5,000×g. The cell pellets were washed by resuspending in phosphate buffered saline (PBS) and collected by centrifugation at 5,000×g. The cell paste was flash frozen in liquid N2 and stored at −80° C. until needed. All operations below were at 4° C. unless otherwise noted. The cells were resuspended in lysis buffer (50 mM Tris-HCl, pH 8.0, 250 mM sucrose) including 1 mM ethylenediaminetetraacetic acid (EDTA) and the complete protease inhibitor cocktail (Roche Diagnostics) at a ratio of 3 mL buffer per 1 g cell paste. The cells were lysed by dounce homogenizer. The cell debris was removed by centrifugation at 1,000×g for 20 min, and the supernatant was centrifuged at 100,000×g for 1 hour. The resulting pellet was rinsed three times by filling ultracentrifuge tubes to the top with ice cold PBS before decanting. The washed pellet was resuspended with gentle stirring for 1 hour in lysis buffer containing 8 mM 3-[(3-cholamidopropyl)dimethylammonio]-1-propanesulfonate (CHAPS) at a ratio of 1 mL buffer per 1 g of original cell paste and centrifuged again at 100,000×g for 1 hour. The resulting supernatant was aliquotted, flash frozen in liquid N2, and stored at −80° C. until use.
To 1 μL of compounds dissolved in 100% DMSO and spotted at the bottom of each well, 5 μL of 0.04% bovine serum albumin (BSA) (fatty acid free, Sigma Aldrich) was added and the mixture was incubated at room temperature for 15 minutes. hDGAT2 membrane fractions were diluted in 100 mM Hepes-NaOH, pH 7.4, 20 mM MgCl2 containing 200 nM methyl arachidonyl fluorophosphonate (Cayman Chemical; dried from ethyl acetate stock solution under argon gas and dissolved in DMSO as 5 mM stock). 10 μL of this enzyme working solution was added to the plates and incubation continued for 2 hours at room temperature. […] Plates were centrifuged at 2,000×g for 1 minute in an Allegra 6R Centrifuge (Beckman Coulter) and then were sealed again with fresh covers before reading in a 1450 Microbeta Wallac Trilux Scintillation Counter (Perkin Elmer). DGAT2 activity was measured by quantifying the generated product [^14C]tridecanoylglycerol in the upper organic phase. […]

[5] = High throughput determination of intrinsic clearance in human hepatocytes; type: in vitro ADME; details: human, pooled cryopreserved human hepatocytes (10 donors), high throughput human hepatocyte assay; 0.5 million cells/mL, 1 μM test compound, 37° C.; mean +/− Std Dev; read-out: CLint (μL/min/10^6 cells) (+/− Std Dev)
Protocol: The incubation was carried out at 37° C. […] The samples were centrifuged (Eppendorf, Hauppauge, N.Y.) at 3000 rpm for 5 min at 4° C.

[6] = biological target: DGAT2 in human hepatocytes (Homo sapiens (Human), UniProt Q96PD7); test: Determination of IC50 values for DGAT2 inhibitors in human hepatocytes; type: cell-based; details: cryopreserved human hepatocytes, DGAT1 inhibitor present; geometric mean
Sequence of DGAT2 in human hepatocytes (Q96PD7 whole entry): as above
Protocol: For evaluation of the effects of DGAT2 inhibitors in a cell-based setting, cryopreserved human hepatocytes (Lot DOO, Celsis, Baltimore, Md.) were thawed and plated onto type I collagen-coated plates according to the manufacturer's instructions. After 18 hours overnight recovery period, the cells were overlayed with media containing 250 μg/mL Geltrex Basement Membrane Matrix (Thermo Fisher). The following day, media was aspirated and replaced with serum-free Williams Media E (Thermo Fisher) containing 400 μM sodium dodecanoate (Sigma-Aldrich, St. Louis, Mo.) and 2 mM GlutaMAX (Thermo Fisher). […] DGAT2 inhibitors were then added to the desired final concentration. After a 15 minute preincubation, 0.2 μCi [^14C(U)]-glycerol (Perkin Elmer) was added to each well followed by a 3 hour incubation. At this point the media was removed, and the cells lysed via orbital shaking in isopropyl alcohol: tetrahydrofuran (9:1) for 15 minutes prior to centrifugation at 3000 rpm for 10 minutes. Radiolabeled lipids were resolved using a solvent system by thin layer chromatography with the solvent consisting of hexanes:diethyl ether:glacial acetic acid (75:23:2, v/v/v). […] The half maximal inhibitory concentrations (IC50 values) were determined by nonlinear regression analysis of the % inhibition dose response curve using GraphPad Prism (GraphPad Software, Inc., La Jolla, Calif.). […]

[7] = Intrinsic clearance in human liver microsomes; type: in vitro ADME; details: human, pooled human liver microsomes (50 donors), pH 7.4, human liver microsome assay; 1 μM test compound, 0.806 mg/mL protein, NADPH, pH 7.4, 37° C.; mean +/− STD Dev; read-out: CLint (μL/min/mg) (+/− STD Dev)
Protocol: The incubations were conducted at 37° C. […] (Sorvall RC 3C Plus, Thermo Scientific, Waltham, Mass.).

| Solubility [2] [µg/mL] | pKa [3] | IC50 [4] [nM] | hepatocyte CLint at 1 μM [5] [µL/min/1e6 cells] | IC50 [6] [nM] | microsomal CLint at 1 μM [7] [µL/min/mg] | Structure (SMILES) | circulating triglyceride response, resulting levels [1] |
| --- | --- | --- | --- | --- | --- | --- | --- |
| 580 (≈ 1320 µM) | – | – | – | – | – | CCOc1cccnc1Oc1cncc(-c2ncc(C(=O)N[C@@H]3CNC[C@@H](F)C3)cn2)c1 [Example 4, 2-{5-[(3-Ethoxypyridin-2-yl)oxy]pyridin-3-yl}-N-[(3S,5S)-5-fluoropiperidin-3-yl]pyrimidine-5-carboxamide] | approached those of the chow-fed vehicle animals |
| – | 8.1 | 40 | < 1.9 | 23 | < 7 | CCOc1cccnc1Oc1cncc(-c2ncc(C(=O)N[C@@H]3CNCC[C@@H]3F)cn2)c1 [Example 3, 2-{5-[(3-Ethoxypyridin-2-yl)oxy]pyridin-3-yl}-N-[(3R,4S)-4-fluoropiperidin-3-yl]pyrimidine-5-carboxamide, bis(trifluoroacetate) Salt] | – |

Source: patent US11471458B2, “Diacylglycerol acyl transferase 2 inhibitor” (Pfizer Inc., priority 2019, dated 2022)
